Active and inactive are the calls of the source.
Key:
[1] = target: Nuclear receptor subfamily 0 group B member 1 (Homo sapiens, UniProt P51843); assay: Luminescence-based cell-based high throughput dose response assay for inhibitors of the orphan nuclear receptor subfamily 0, group B, member 1 (DAX1; NR0B1). [Related pubchem assays (depositor defined):AID504766, AID504790]; type: functional
HEK293 = assay: cells; type: functional, cell-based; details: Homo sapiens
INS1 [2] = assay: protection of INS-1E cells from cytokine death, dose response, ATP luminescence, dry powder (AID 488844); type: functional, cell-based; details: Rattus norvegicus
Vero = assay: cells; type: functional, cell-based; details: Chlorocebus sabaeus
[3] = HEp-2 cell cytotoxicity, dose response, cytotoxicity control for RSV inhibitor project, HTS (AID 2410); type: functional; details: human respiratory syncytial virus
[4] = CEM21 lymphoblast cell cytotoxicity, dose response, cytotoxicity control for viral fusion inhibitor project, CellTiter-Glo luminescence, cherry-picked (AID 652042); type: functional, cell-based;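 also: potency for signal decrease meaning cytotoxicity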
[5] = cytotoxicity in HEK-293T NF-kB-Luc cells, dose response, cytotoxicity control for B/T-cell NF-kB inhibitor project, cell-based, uHTS hits (AID 489019); type: functional;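 also: IC50 reflects cytotoxicity as loss of cell viability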
[6] = MC4R antagonists, dose response, counter-screen for LGR2 antagonist project, cell-based, plate reader, cherry pick (AID 743444); type: functional;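 also: transfected HEK 293 cells stimulated with alpha-MSH peptide; potency of inhibitors of the alpha-MSH evoked signal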
INS1 [7] = assay: beta cell apoptosis inhibitors, cytokine rescue, dose response, luminescence, retest (AID 449756); type: functional, cell-based; details: Rattus norvegicus;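 also: cell death triggered by IL-1 beta plus TNF-alpha plus IFN-gamma mixture; protective hits raise ATP signal compared with cytokine alone wells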
[8] = inhibitors of HIV Env-driven cell fusion, dose response, cherry-pick (AID 652057); type: functional, cell-based
BJ [9] = assay: cytotoxicity toward Ras-transformed BJeLR fibroblasts, dose response, cell-based, alamar blue fluorescence, cherrypicked samples (AID 2631); type: functional; details: Homo sapiens;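 also: confirmatory dose-response assay in RAS-dependent BJ fibroblasts engineered with TERT, LT and ST, with cytotoxicity read by fluorescence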
Jurkat = assay: antigen receptor-induced NF-kB inhibitors, dose response, Jurkat, luciferase reporter, luminescence, B- and T-cell (AID 489004); type: functional, cell-based; details: Homo sapiens;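 also: NF-kB luciferase reporter Jurkat cells stimulated with PMA plus ionomycin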
[10] = target: Photoreceptor-specific nuclear receptor (Homo sapiens, UniProt Q9Y5X4); type: functional, cell-based;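 also: CHO-S cells with Gal4-NCOR and VP16-NR2E3 two-hybrid luciferase reporter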
[11] = A549 cell cytotoxicity, dose response, cytotoxicity control, plate reader, cherry-pick, antagonist series (AID 743412); type: functional, cell-based
[12] = Shn3 3'UTR reporter inhibitors, dose response, cell-based, Clone20 osteoblasts, firefly luciferase, cherry-picked (AID 624132); type: functional;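 also: firefly luciferase luminescence from reporter carrying the Shn3 3'UTR in osteoblasts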
BJ [13] = assay: cytotoxicity toward BJ-TERT fibroblasts, dose response, cell-based, RAS-independent, luminescence (AID 1933); type: functional; details: Homo sapiens
[14] = HepG2 cell cytotoxicity, dose response, cytotoxicity control for Shn3 inhibitor project, CellTiter-Glo, cherry-picked (AID 624134); type: functional, cell-based
[15] = Luminescence Cell-Based Dose Confirmation HTS to Identify Inhibitors of Platelet Dense Granule Release. [Related pubchem assays: 1663 (Primary HTS), 1678 (Summary of Project)]; type: functional
[16] = HEK293 cell cytotoxicity, dose response, cytotoxicity control, plate reader, cherry-picked samples (AID 743446); type: functional, cell-based
[17] = inhibitors of clade B AD8 Env fusion, dose response, cell-based, cherry-pick (AID 652062); type: functional;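 also: luciferase signal from cell-cell fusion driven by HIV-1 clade B AD8 Env; potency is for inhibitors of fusion seen as a drop in luminescence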
[18] = cytotoxicity toward DRD oncogenic fibroblasts, dose response, cell-based, non-viral oncogenic, luminescence (AID 1934); type: functional; details: Homo sapiens
BJ [19] = assay: cells; type: functional, cell-based; details: Homo sapiens
[20] = HepG2 cell cytotoxicity, dose response, cytotoxicity control, plate reader, cherry-pick, antagonist series (AID 743416); type: functional, cell-based
[21] = non-specific cell cytotoxicity, dose response, cytotoxicity control for PAX8 inhibitor project, plate reader, dry powder samples (AID 743021); type: functional, cell-based
BJ [22] = assay: cytotoxicity toward BJ-TERT-LT-ST fibroblasts, dose response, cell-based, RAS-independent, luminescence (AID 1935); type: functional; details: Homo sapiens;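 also: BJ fibroblasts immortalized with TERT plus LT and ST oncogenes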
[23] = target: Heat shock protein HSP 90-alpha (Homo sapiens, UniProt P07900); type: functional, organism-based
[24] = ZM109 Env clade C HIV-1 fusion inhibitors, dose response, HeLa effector, CEM target cells, luciferase, cherry-pick (AID 652058); type: functional, cell-based
Paired box protein Pax-8 = Paired box protein Pax-8 (Homo sapiens, UniProt Q06710); assay: inhibitors of PAX8-driven TPO luciferase reporter, dose response, RMG-I cells, cherry-pick (AID 687027); type: functional, cell-based;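 also: luciferase reporter driven by Pax8 target thyroperoxidase promoter measured by SteadyGlo luminescence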
[25] = target: Luciferin 4-monooxygenase (Photinus pyralis, UniProt P08659); assay: firefly luciferase enzyme inhibitors, dose response, biochemical, luminescence (AID 1891)
[26] = off-target signal loss in HeLa-CEM21 co-culture – HeLa F-luc CTL cells, cherry-picked, counter-screen for HIV-1 Env fusion inhibitor project, dose response (AID 652040); type: functional, cell-based;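 also: potency for signal decrease marking cytotoxic or nonspecific inhibition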
[27] = LGR2 antagonists, dose response, cell-based, HEK293, CRE-luciferase reporter, cherry pick, set 2 (AID 743343); type: functional;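 also: transfected cells were stimulated with diluted bursicon conditioned medium after compound addition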
[28] = Luminescence Cell-Based Dose Retest to Confirm Inhibitors of Cancer Stem Cells. [Related pubchem assays (depositor defined):AID2717, AID2721]; type: functional; details: Homo sapiens
[29] = cytotoxicity in HMLE control line with eGFP shRNA, dose response, counter-screen for HMLE_sh_ECad selective toxicity project, cell-based, HMLE_sh_eGFP, luminescence (AID 463074); type: functional, Homo sapiens;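 also: HMLE human mammary epithelial cells expressing control shRNA against eGFP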

Photoreceptor-specific nuclear receptor, sequence (Q9Y5X4 whole entry, the tested form may be a part): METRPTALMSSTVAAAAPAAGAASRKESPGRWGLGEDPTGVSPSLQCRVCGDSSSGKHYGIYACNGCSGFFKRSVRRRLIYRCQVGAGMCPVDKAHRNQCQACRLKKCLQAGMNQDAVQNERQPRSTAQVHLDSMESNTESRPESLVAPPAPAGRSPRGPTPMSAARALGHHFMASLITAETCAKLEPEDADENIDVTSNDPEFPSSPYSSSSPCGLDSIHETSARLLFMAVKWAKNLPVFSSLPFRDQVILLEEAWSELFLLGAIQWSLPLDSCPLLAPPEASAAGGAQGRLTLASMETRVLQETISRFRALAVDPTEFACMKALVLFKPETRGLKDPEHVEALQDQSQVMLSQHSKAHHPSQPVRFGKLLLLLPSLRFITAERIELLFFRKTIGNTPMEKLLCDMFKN
Luciferin 4-monooxygenase, sequence (P08659 whole entry, the tested form may be a part): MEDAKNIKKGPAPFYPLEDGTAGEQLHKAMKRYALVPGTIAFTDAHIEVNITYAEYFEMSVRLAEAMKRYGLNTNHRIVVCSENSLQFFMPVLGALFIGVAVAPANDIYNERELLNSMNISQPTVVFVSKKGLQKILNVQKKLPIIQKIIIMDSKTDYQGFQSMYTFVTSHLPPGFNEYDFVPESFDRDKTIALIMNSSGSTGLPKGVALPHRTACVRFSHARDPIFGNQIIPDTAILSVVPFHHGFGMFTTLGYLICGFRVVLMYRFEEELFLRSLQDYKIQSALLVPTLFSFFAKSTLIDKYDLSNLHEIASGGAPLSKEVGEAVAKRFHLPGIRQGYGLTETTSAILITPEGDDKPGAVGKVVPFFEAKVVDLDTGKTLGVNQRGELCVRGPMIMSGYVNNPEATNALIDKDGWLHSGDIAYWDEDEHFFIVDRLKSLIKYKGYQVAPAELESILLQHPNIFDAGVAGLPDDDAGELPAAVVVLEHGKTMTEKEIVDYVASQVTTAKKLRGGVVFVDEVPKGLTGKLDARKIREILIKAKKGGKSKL
Paired box protein Pax-8, sequence (Q06710 whole entry): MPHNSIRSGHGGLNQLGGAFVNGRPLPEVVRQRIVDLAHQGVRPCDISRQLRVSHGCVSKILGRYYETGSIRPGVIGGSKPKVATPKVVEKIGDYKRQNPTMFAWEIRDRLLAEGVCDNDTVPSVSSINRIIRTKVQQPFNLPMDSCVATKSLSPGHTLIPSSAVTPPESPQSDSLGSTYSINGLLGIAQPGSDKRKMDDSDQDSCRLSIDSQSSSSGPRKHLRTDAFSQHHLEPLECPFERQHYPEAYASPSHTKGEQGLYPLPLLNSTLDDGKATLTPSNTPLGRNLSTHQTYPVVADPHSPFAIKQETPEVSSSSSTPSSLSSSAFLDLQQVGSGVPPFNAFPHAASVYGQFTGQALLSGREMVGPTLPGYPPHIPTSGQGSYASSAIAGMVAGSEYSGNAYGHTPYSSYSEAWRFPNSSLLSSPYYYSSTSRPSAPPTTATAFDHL
Nuclear receptor subfamily 0 group B member 1, sequence (P51843 whole entry): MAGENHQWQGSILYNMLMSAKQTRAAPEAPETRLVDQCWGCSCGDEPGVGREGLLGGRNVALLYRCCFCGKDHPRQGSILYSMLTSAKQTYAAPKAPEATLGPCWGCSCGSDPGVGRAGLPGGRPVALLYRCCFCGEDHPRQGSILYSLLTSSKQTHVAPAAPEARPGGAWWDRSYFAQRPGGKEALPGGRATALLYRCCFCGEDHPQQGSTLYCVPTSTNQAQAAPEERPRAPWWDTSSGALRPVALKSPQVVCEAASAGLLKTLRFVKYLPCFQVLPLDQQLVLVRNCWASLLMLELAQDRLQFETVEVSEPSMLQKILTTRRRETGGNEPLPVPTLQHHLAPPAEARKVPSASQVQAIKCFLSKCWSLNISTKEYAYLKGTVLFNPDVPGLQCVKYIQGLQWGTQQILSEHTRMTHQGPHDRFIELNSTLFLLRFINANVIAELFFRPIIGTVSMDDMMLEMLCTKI

With Cc1cc(NC(=O)c2cc3cccc([N+](=O)[O-])c3[nH]2)ccc1F the IC50 [1] was > 67500 nM (inactive) and the IC50 (HEK293) was > 67500 nM (inactive).

For COc1ccc(S(=O)(=O)N(C)C[C@@H]2Oc3c(NC(=O)Nc4ccc(F)cc4)cccc3C(=O)N([C@H](C)CO)C[C@H]2C)cc1, the AC50 (INS1 [2]) was 41700 nM (active).

In the case of Cc1cccc(NC(=O)C(C)Sc2nc3ccccc3c(=O)n2CCCN2CCOCC2)c1 (centres undefined), the IC50 (cells) is reported as 26800 nM (active), the IC50 (Vero) is reported as 23400 nM (active) and the CC50 [3] is reported as 30800 nM (active).

With COc1ccccc1C(=O)Nc1nc2ccccc2[nH]1 the AC50 [4] was 1710 nM (active), the IC50 [5] was > 80000 nM (inactive) and the AC50 [6] was 253 nM (active). For the same compound, the AC50 (INS1 [7]) was 1690 nM (active), the AC50 [8] was 879 nM (active) and the EC50 (BJ [9]) was > 133000 nM (inactive). For the same compound, the IC50 (Jurkat) was 570 nM (active), the IC50 [10] was 3250 nM (active) and the AC50 [11] was 1290 nM (active). The AC50 [12] was 868 nM (active), the EC50 (BJ [13]) was 802 nM (inconclusive) and the AC50 [14] was 6570 nM (active). The EC50 [15] was 196 nM (active), the AC50 [16] was 2330 nM (active) and the AC50 [17] was 1410 nM (active). For the same compound, the EC50 [18] was 734 nM (active), the EC50 (BJ [19]) was 607 nM (inconclusive) and the AC50 [20] was 6260 nM (active). The AC50 [21] was 1790 nM (active), the EC50 (BJ [22]) was 1830 nM (inconclusive) and the AC50 [23] was 555 nM (active). For the same compound, the AC50 [24] was 6080 nM (active), the AC50 (Paired box protein Pax-8) was 2040 nM (active) and the EC50 [25] was 159 nM (active). The AC50 [26] was 2570 nM (active) and the AC50 [27] was 217 nM (active).

For O=C(c1cc(-c2ccc(O)cc2)on1)N1CCN(c2ccccc2)CC1, the AC50 [28] was 2890 nM (active) and the AC50 [29] was 23100 nM (active).

Reference: ChEMBL document CHEMBL1201862, “PubChem BioAssay data set” (2004)
